Test results taken from ChEMBL document CHEMBL1201862, “PubChem BioAssay data set” (2004).
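Step 1: Grow cells in 96-well plates. Step 2: Expose to compound for 48 hours at 5 concentrations. Step 3: Interpolate endpoints linearly; if unreached, use highest concentration. GI50: concentration for 50% inhibition of growth.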 Activity calls are given as the source filed them. Cut-off read from the data, not from the text of the source: active = GI50 up to about 1.1 µM and inactive = higher.

How the values were obtained:
Experiment in all cases: DTP human tumour cell line panel, 48 h
EKVX = test system: EKVX
Hs-578T = test system: Hs-578T
IGROV-1 = test system: IGROV-1
LOX IMVI = test system: LOX IMVI
M14 = test system: M14
Malme-3M = test system: Malme-3M
NCI-H460 = test system: NCI-H460
RPMI-8226 = test system: RPMI-8226
RXF 393 = test system: RXF 393
SF-268 = test system: SF-268
SF-539 = test system: SF-539
SK-MEL-28 = test system: SK-MEL-28
SK-MEL-2 = test system: SK-MEL-2
SK-MEL-5 = test system: SK-MEL-5
T47D = test system: T47D
TK-10 = test system: TK-10
U-251 = test system: U-251
UACC-257 = test system: UACC-257
UO-31 = test system: UO-31

Measured: GI50

CSc1ccc(NC(=S)NN(C)C)cc1
inactive: EKVX > 10 µM | Hs-578T > 10 µM | IGROV-1 > 10 µM | LOX IMVI > 10 µM | M14 > 10 µM | Malme-3M > 10 µM | NCI-H460 > 10 µM | RPMI-8226 > 10 µM | RXF 393 > 10 µM | SF-268 > 10 µM | SF-539 > 10 µM | SK-MEL-28 > 10 µM | SK-MEL-2 > 10 µM | SK-MEL-5 > 10 µM | T47D > 10 µM | TK-10 > 10 µM | U-251 > 10 µM | UACC-257 > 10 µM | UO-31 > 10 µM

CCOC(=O)C(=O)C(C#N)c1ccc(Cl)cc1 (stereo unspecified)
inactive: EKVX > 100 µM | IGROV-1 > 100 µM | LOX IMVI > 100 µM | M14 > 100 µM | Malme-3M > 100 µM | NCI-H460 > 100 µM | RPMI-8226 > 100 µM | RXF 393 > 100 µM | SF-268 > 100 µM | SF-539 > 100 µM | SK-MEL-28 > 100 µM | SK-MEL-2 > 100 µM | SK-MEL-5 > 100 µM | TK-10 > 100 µM | U-251 > 100 µM | UACC-257 > 100 µM | UO-31 88.1 µM

COc1ccc2c(c1)CC1c3c(ccc(OC)c3O)CC2N1C (stereo unspecified)
inactive: EKVX 50.9 µM | IGROV-1 44.1 µM | LOX IMVI 23.9 µM | M14 16.5 µM | Malme-3M 15.7 µM | NCI-H460 19.3 µM | RPMI-8226 20.9 µM | RXF 393 22.6 µM | SF-268 54.2 µM | SF-539 24.7 µM | SK-MEL-28 21 µM | SK-MEL-2 19.2 µM | SK-MEL-5 18.1 µM | TK-10 64.4 µM | U-251 25.1 µM | UACC-257 23.1 µM | UO-31 30.8 µM

CC1=C(CO)C(=O)OC(C(C)C2CCC3C4CC5OC56C(O)C(N5CC5)=CC(=O)C6(C)C4CCC23C)C1 (stereo unspecified)
inactive: EKVX 12.2 µM | IGROV-1 3.47 µM | LOX IMVI 14 µM | M14 12.1 µM | Malme-3M 12.6 µM | NCI-H460 9.44 µM | RPMI-8226 3.35 µM | RXF 393 12 µM | SF-268 3.81 µM | SF-539 3.66 µM | SK-MEL-28 16 µM | SK-MEL-2 5.73 µM | SK-MEL-5 12.8 µM | TK-10 10.1 µM | U-251 4.22 µM | UACC-257 11.9 µM | UO-31 12.9 µM

CN(C)c1ccc(/C=c2\sc3nnc(Cc4ccccc4)n3c2=O)cc1
inactive: EKVX > 10 µM | IGROV-1 > 10 µM | LOX IMVI > 10 µM | M14 > 10 µM | Malme-3M > 10 µM | NCI-H460 > 10 µM | RPMI-8226 > 10 µM | RXF 393 31.8 µM | SF-268 28.3 µM | SF-539 > 10 µM | SK-MEL-28 > 10 µM | SK-MEL-2 > 10 µM | SK-MEL-5 > 10 µM | TK-10 > 10 µM | U-251 > 10 µM | UACC-257 > 10 µM | UO-31 > 100 µM

CN(C)c1n/c(=N/Cc2ccccc2)ss1
inactive: EKVX > 10 µM | Hs-578T > 10 µM | IGROV-1 > 10 µM | LOX IMVI > 5.77 µM | M14 > 10 µM | Malme-3M > 10 µM | NCI-H460 > 10 µM | RPMI-8226 2.9 µM | RXF 393 > 10 µM | SF-268 > 10 µM | SF-539 > 10 µM | SK-MEL-28 > 10 µM | SK-MEL-5 > 10 µM | T47D > 10 µM | TK-10 > 10 µM | U-251 > 10 µM | UACC-257 > 10 µM | UO-31 9.25 µM

CC(C)Cc1ccc(C(C)/C=C2\CCC(CN3CCCC3)C2=O)cc1 (stereo unspecified)
inactive: EKVX 18.2 µM | IGROV-1 5.74 µM | LOX IMVI 2.88 µM | M14 13.8 µM | Malme-3M 20.4 µM | NCI-H460 17.7 µM | RPMI-8226 1.84 µM | RXF 393 18.8 µM | SF-268 3.98 µM | SF-539 5.81 µM | SK-MEL-28 14.6 µM | SK-MEL-2 17.7 µM | SK-MEL-5 14.8 µM | TK-10 3.69 µM | U-251 5.87 µM | UACC-257 16.7 µM | UO-31 15.9 µM

CSc1cc(Cl)c(C)cc1S(=O)(=O)NC(=O)NNc1ccc(F)cc1
inactive: EKVX > 100 µM | Hs-578T > 100 µM | IGROV-1 > 100 µM | LOX IMVI > 100 µM | M14 > 100 µM | Malme-3M > 100 µM | NCI-H460 > 100 µM | RXF 393 > 100 µM | SF-268 > 100 µM | SF-539 > 100 µM | SK-MEL-28 > 100 µM | SK-MEL-2 > 100 µM | SK-MEL-5 > 100 µM | T47D > 100 µM | U-251 > 100 µM

O=C(CC1(O)C(=O)Nc2c(Cl)cc(Cl)cc21)c1ccc2ccccc2c1 (stereo unspecified)
inactive: EKVX 9.77 µM | IGROV-1 10.9 µM | LOX IMVI 10.5 µM | M14 4.79 µM | Malme-3M 6.53 µM | NCI-H460 4.7 µM | RPMI-8226 5.22 µM | RXF 393 8.17 µM | SF-268 12.2 µM | SF-539 8.17 µM | SK-MEL-28 10.7 µM | SK-MEL-2 2.48 µM | SK-MEL-5 6.11 µM | TK-10 14.1 µM | U-251 6.92 µM | UACC-257 12.6 µM | UO-31 11.5 µM

CCN1C(=O)/C(=C/Nc2ccccc2)S/C1=N/Nc1nc(-c2ccc(O)c(O)c2)cs1
inactive: EKVX 16.9 µM | Hs-578T 96.2 µM | IGROV-1 32.6 µM | LOX IMVI 6.08 µM | M14 5.61 µM | Malme-3M 6.19 µM | NCI-H460 35.2 µM | RPMI-8226 12.3 µM | RXF 393 3.39 µM | SF-268 23.4 µM | SF-539 2.07 µM | SK-MEL-28 7.59 µM | SK-MEL-2 4.31 µM | SK-MEL-5 3.96 µM | TK-10 38.5 µM | U-251 6.56 µM | UACC-257 6.44 µM | UO-31 8.02 µM

CN(CC#N)C1CCCC[C@H]1O (stereo partly specified)
inactive: EKVX > 100 µM | IGROV-1 > 100 µM | LOX IMVI > 100 µM | M14 > 100 µM | Malme-3M > 100 µM | NCI-H460 > 100 µM | RPMI-8226 > 100 µM | RXF 393 > 100 µM | SF-268 > 100 µM | SF-539 > 100 µM | SK-MEL-28 > 100 µM | SK-MEL-2 > 100 µM | SK-MEL-5 > 100 µM | TK-10 > 100 µM | U-251 > 100 µM | UACC-257 > 100 µM | UO-31 > 100 µM

COC(=O)C1=C(C(=O)OC)C2(OC(C)=O)c3ccccc3-c3ccccc3C12 (stereo unspecified)
inactive: EKVX 10.6 µM | IGROV-1 3.74 µM | LOX IMVI 5.09 µM | M14 4.79 µM | Malme-3M 2.25 µM | NCI-H460 17 µM | RPMI-8226 2.62 µM | RXF 393 4.8 µM | SF-268 7.62 µM | SF-539 17.2 µM | SK-MEL-28 5.27 µM | SK-MEL-2 14.5 µM | SK-MEL-5 14.1 µM | TK-10 3.6 µM | U-251 7.87 µM | UACC-257 5.96 µM | UO-31 4.68 µM
